{"source": "paper PMC12668304", "about": "“A Triple Threat Against Ovarian Cancer: Os(II)‐Pt(IV)‐Ceritinib Conjugates for Photodynamic Therapy, Chemotherapy, and Immunogenic Cell Death Induction” (Angewandte Chemie (International Ed. in English), 2025)", "key": {"RPE‐1 cells": {"system": "RPE‐1 cells", "test": "(Photo-)cytotoxicity on 2D cell monolayers, resazurin assay", "format": "cell-based", "settings": "for IC50: RPE‐1, normoxic, 4 h exposure", "procedure": "(§1) The 2D cytotoxicity and phototoxicity profiles of Os‐Pt‐Cer and controls, were evaluated in a panel of cancerous cell lines, including A2780 (ovarian carcinoma), A549 (non‐small cell lung carcinoma), and MCA205 (murine fibrosarcoma), as well as a non‐cancerous retinal pigment epithelial cell line (RPE‐1). Cells were treated with the compounds (0.003–100 µM) for 4 h, either kept in the dark or irradiated at 670 nm (13.5 J cm^− ^2) (Table S4 and Figure S22) or 740 nm (12.6 J cm^− ^2) and viability was assessed 44 h post‐treatment. To verify robustness, the incubation was extended to 72 h. […]\n(§2) Human ovarian cancer (A2780) cells and mouse fibrosarcoma cells (MCA205) were cultured in RPMI media. Retinal pigment epithelium (RPE -1) cells were cultured in DMEM/F -12 medium. Lung cancer cells (A549) were cultured in F -12K medium. These cell lines were complemented with 10% of fetal bovine serum, 100 U/mL penicillin -streptomycin mixture, and maintained in a humidified atmosphere […]\n(§3) (Photo-)cytotoxicity on 2D cell monolayers\n(§4) The cytotoxicity of the compounds was assessed by measuring cell viability using a resazurin assay.\n(§5) The cells were seeded in triplicates in 96 well plates with a density of 10 4 cells per well in 100 μL of media. After 24 h, the medium was removed, and the cells were treated with increasing concentrations (0.003 → 100 µM) of the compounds diluted in cell media , achieving a total volume of 100 μL/well.\n(§6) The cells were incubated with the compound for 4 h (final incubation time 48 h) or 24 h (final incubation time 72 h). After this time, the media was removed and replaced with 100 μL of fresh medium. For the phototoxicity studies, the cells were exposed to light with an Atlas Photonics LUMOS BIO irradiation system. Each well was constantly irradiated at 670 nm (60 min, 13.50 J·cm-2) or 740 nm (60 min, 12.60 J·cm-2). During the irradiation, the temperature of the plate was maintained at 37 °C. The cells were grown in the incubator for an additional 44 or 48 h, respectively. For the determination of the dark cytotoxicity, the cells were not irradiated and after the medium exchange directly incubated for 44 h.\n(§7) After this time, the medium was replaced with fresh medium containing resazurin (0.2 mg/mL). After […]\n(§8) 4 h of incubation, the conversion of resazurin into resorufin was determined upon excitation at 540 nm and measurement of its emission at 590 nm using a Cytation 5 Imaging Reader from BioTek. The obtained data was analysed with the GraphPad Prism software […]\n(§9) After 24 h of incubation at 37 °C, 5% CO 2, plates were read using a SpectraMaxM2 Microplate Reader ( λexc = 540 nm; λread = 590 nm). Fluorescence data were normalised, and data were fitted using GraphPad Prism Software, and IC 50 was calculated by non - linear regression. Changes in the size and shape of MCTS were monitored every 24 h using Cytation 5 Imaging Reader from BioTek, objective x4.\n(§10) Intracellular distribution by confocal fluorescence microscopy\n(§11) 10^4 cells/well (A2780 cells) were seeded in complete medium (RPMI) in µ -slide 8 well (Ibidi) (100 µl/well) and left for 24 h to attach to the bottom. Then, the culture medium was removed , and 100 µl of solution of the corresponding complexes (5 µM) was added. The complexes were incubated with the cells for 4 hours. Thereafter, the medium was removed and replaced by RPMI without phenol red , and Hoechst and MitoTracker Green were added at a final concentration of 1 µg/mL. They were incubated with the cells for 30 min in the dark at 37 °C. Images were collected in a sequential mode in a Leica TCS SP8 confocal microscope with a 60x oil immers ion objective, a line average of 4, and a format of […]\n(§12) (MTG)→ 500 -550nm, and 488 nm (complexes)→ 680 -730 nm. The confocal pinhole was 1 Airy unit.\n(§13) Images were analysed with LAS X Flim FCS software.\n(§14) Intracellular distribution by ICP -MS"}, "A2780 cells": {"system": "A2780 cells", "test": "(Photo-)cytotoxicity on 2D cell monolayers, resazurin assay", "format": "cell-based, human", "settings": "for IC50: A2780, normoxic, 4 h exposure", "procedure": "as §1, §2, §3, §4, §5, §6, §7, §8, §9, §10, §11, §12, §13, §14"}, "MCA205 cells": {"system": "MCA205 cells", "test": "(Photo-)cytotoxicity on 2D cell monolayers, resazurin assay", "format": "cell-based, mouse", "settings": "MCA205, normoxic, dark, 4 h exposure, total 48 h incubation; read-out: IC50 Dark", "procedure": "as §1, §2, §3, §4, §5, §6, §7, §8, §9, §10, §11, §12, §13, §14"}, "A2780 MCTSs": {"system": "A2780 MCTSs", "test": "(Photo-)cytotoxicity on 3D multicellular tumour spheroids, resazurin assay", "format": "cell-based, human", "settings": "normoxic, dark, one week of incubation, read-out: IC50 Dark", "procedure": "A2780 spheroids (ca. 500 µm in diameter) were treated with increasing concentrations of the compounds and after 24 h of incubation, the medium was replaced with fresh medium, and the cells were either kept in the dark or irradiated for 1 h at 740 nm. Images of the spheroids were taken every 24 h for 3 days.\nAdditionally, the phototoxicity was tested via a fluorometric resazurin assay in A2780 MCTSs (Table 3). […] (Figure S29). […] This can be attributed to the different biological endpoints and time frames of the assays: spheroid diameter was monitored over 72 h, whereas resazurin measurements were performed after 7 days, potentially capturing delayed cytotoxic effects due to differences in drug cellular uptake.\n4 h of incubation, the conversion of resazurin into resorufin was determined upon excitation at 540 nm and measurement of its emission at 590 nm using a Cytation 5 Imaging Reader from BioTek. The obtained data was analysed with the GraphPad Prism software\nMCTS were cultured using ultra-low attachment 96 wells plates from Corning (Fisher Scientific 15329740). A2780 cells were seeded at a density of 1,500 cells per well in 100 μL of RPMI. Within 2-3 days, MCTSs have approximately 500 μm of diameter. The formation as well as integrity and diameter of the MCTSs were monitored by microscopy.\n(Photo-)cytotoxicity on 3D multicellular tumor spheroids (MCTS)\nAfter 2 days of growing at 37 °C in 5% CO2, the medium was removed, and MCTSs were treated by adding 100 μL of the medium in the well with increasing concentrations of compounds (Os-Pt-Cer, Os, Ceritinib, Oxaliplatin, cisplatin, and Ce6 as additional control). For untreated reference MCTSs, only half of the medium was added with fresh medium. After 24 hours, the MCTSs were divided into two identical groups. The first group was strictly kept in the dark. The second group was irradiated at 740 nm for 1 h (12.60 J·cm-2) using a LUMOS-BIO photoreactor (Atlas Photonics). After the irradiation, all groups were incubated additional 7 days. Thereafter, medium was replaced with 100 μL of fresh medium containing resazurin (0.2 mg/mL). After 24 h of incubation at 37 °C, 5% CO 2, plates were read using a SpectraMaxM2 Microplate Reader ( λexc = 540 nm; λread = 590 nm). Fluorescence data were normalised, and data were fitted using GraphPad Prism Software, and IC 50 was calculated by non - linear regression. Changes in the size and shape of MCTS were monitored every 24 h using Cytation 5 Imaging Reader from BioTek, objective x4. […]\nFigure S29. Cell viability graphs after one week of incubation. Studied compounds were incubated for 24 h, thereafter the medium was renovated. For PDT, plates were irradiated at 740 nm for 1h using a LUMOS-BIO photoreactor (Atlas Photonics). For both PDT and regular cytotoxicity, cells were incubated for one week at 37 °C, 5 % CO2. The medium was renovated each two days. Then, the medium was replaced with 100 µL of fresh medium containing 0.2 mg/mL resazurin (Acros Organics). After 24 h of incubation, the fluorescence signal of the resazurin product was recorded (λexc = 540 nm; λem = 590 nm) using a Cytation 5 Cell Imaging Multi-Mode Reader (Biotek - Agilent).\n(1 picture or pasted object on this page, not shown here)"}, "A549 cells": {"system": "A549 cells", "test": "(Photo-)cytotoxicity on 2D cell monolayers, resazurin assay", "format": "cell-based", "settings": "A549, normoxic, dark, 4 h exposure, total 48 h incubation; read-out: IC50 Dark", "procedure": "as §1, §2, §3, §4, §5, §6, §7, §8, §9, §10, §11, §12, §13, §14"}, "[1]": {"design": "method as in not given", "settings": "standard, acetonitrile; ref not given; cited from earlier work"}, "[2]": {"settings": "Homo sapiens, 740 nm (60 min, 12.60 J·cm^−2), total 48 h, read-out: IC50 Irrad. 740 nm"}, "[3]": {"settings": "Homo sapiens, dark, total 48 h incubation, read-out: IC50 Dark"}, "[4]": {"settings": "dark, total 48 h incubation, read-out: IC50 Dark"}}, "note": "Read-outs that look alike come from different tables or passages of the source.", "data": [{"smiles": "C=CC1=C(C)c2cc3[nH]c(cc4nc(cc5[nH]c(cc1n2)c(C)c5CCC(=O)O)C(CCC(=O)O)=C4C)c(C)c3C=C", "note": "[PPIX, Protoporphyrin]", "values": [{"measurement": "IC50", "setting": "RPE‐1 cells; [2]", "result": "41.6 ± 0.3", "unit": "µM"}, {"measurement": "IC50", "setting": "RPE‐1 cells; [3]", "result": "> 100", "unit": "µM"}, {"measurement": "PI (IC50 dark/IC50 irradiation 740 nm)", "setting": "RPE‐1 cells; RPE‐1", "result": "≥2"}, {"measurement": "PI (IC50 dark/IC50 irradiation 740 nm)", "setting": "A2780 cells; A2780", "result": "≥6"}, {"measurement": "IC50", "setting": "A2780 cells; [2]", "result": "17.3 ± 0.01", "unit": "µM"}, {"measurement": "IC50", "setting": "A2780 cells; [3]", "result": "> 100", "unit": "µM"}]}, {"smiles": "N.N.[Cl][Pt][Cl]", "note": "[Cisplatin]", "values": [{"measurement": "IC50", "setting": "MCA205 cells", "result": "0.72 ± 0.2", "unit": "µM"}, {"measurement": "IC50", "setting": "A2780 MCTSs", "result": "2 ± 0.4", "unit": "µM"}, {"measurement": "IC50", "setting": "RPE‐1 cells; [4]", "result": "15.2 ± 0.7", "unit": "µM"}, {"measurement": "IC50", "setting": "A549 cells", "result": "1.11 ± 0.33", "unit": "µM"}, {"measurement": "IC50", "setting": "A2780 cells; [4]", "result": "1.92 ± 0.4", "unit": "µM"}]}, {"smiles": "[Ru+2].c1ccc(-c2ccccn2)nc1.c1ccc(-c2ccccn2)nc1.c1ccc(-c2ccccn2)nc1", "note": "[Ru(bpy)3, Tris(2,2'-bipyridyl) ruthenium (II)]", "values": [{"measurement": "Quantum yield", "setting": "[1]", "result": 0.077}, {"measurement": "Singlet oxygen quantum yield", "setting": "[1]", "result": 0.77}]}]}
